From ChEMBL document CHEMBL1201862, “PubChem BioAssay data set” (2004)
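Results reflect a 48-hour exposure of cells in 96-well plates to compound at five concentrations. Here, GI50 denotes the concentration required for 50% inhibition of growth.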 The source made the active and inactive calls. No stated cut-off is given here; in the data, active = GI50 up to about 1.1 µM and inactive = higher.

Experiments:
Assay in all cases: NCI anticancer screen, dose series, 48 h
MDA-N = system: MDA-N
UACC-257 = system: UACC-257
Hs-578T = system: Hs-578T
HCC 2998 = system: HCC 2998
MDA-MB-231 = system: MDA-MB-231
SN12C = system: SN12C
SNB-19 = system: SNB-19
SK-OV-3 = system: SK-OV-3
NCI-H23 = system: NCI-H23
K562 = system: K562
A498 = system: A498
HL-60 = system: HL-60
PC-3 = system: PC-3
BT-549 = system: BT-549
SR = system: SR
HOP-62 = system: HOP-62
SF-539 = system: SF-539
TK-10 = system: TK-10
RPMI-8226 = system: RPMI-8226
IGROV-1 = system: IGROV-1

| Compound | GI50 (MDA-N) | GI50 (UACC-257) | GI50 (Hs-578T) | GI50 (HCC 2998) | GI50 (MDA-MB-231) | GI50 (SN12C) | GI50 (SNB-19) | GI50 (SK-OV-3) | GI50 (NCI-H23) | GI50 (K562) | GI50 (A498) | GI50 (HL-60) | GI50 (PC-3) | GI50 (BT-549) | GI50 (SR) | GI50 (HOP-62) | GI50 (SF-539) | GI50 (TK-10) | GI50 (RPMI-8226) | GI50 (IGROV-1) |
| --- | --- | --- | --- | --- | --- | --- | --- | --- | --- | --- | --- | --- | --- | --- | --- | --- | --- | --- | --- | --- |
| O=C1CSC(c2ccc([N+](=O)[O-])cc2)N1c1ccc(-c2ccc(-n3c(-c4ccccc4)nc4ccccc4c3=O)cc2)cc1 (centres undefined) | 75 µM (inactive) | > 100 µM (inactive) | > 100 µM (inactive) | 35.7 µM (inactive) | 49.8 µM (inactive) | > 100 µM (inactive) | > 100 µM (inactive) | > 100 µM (inactive) | > 100 µM (inactive) | 34.4 µM (inactive) | > 100 µM (inactive) | 26.5 µM (inactive) | 36.4 µM (inactive) | 53.3 µM (inactive) | 18.7 µM (inactive) | > 100 µM (inactive) | > 100 µM (inactive) | 66.2 µM (inactive) | 32.5 µM (inactive) | – |
| NC(=S)NN=Cc1ccccc1OCc1cccc(COc2ccccc2C=NNC(N)=S)n1 | > 100 µM (inactive) | > 79.8 µM (inactive) | 18.1 µM (inactive) | > 100 µM (inactive) | 6.92 µM (inactive) | > 79.3 µM (inactive) | 9.89 µM (inactive) | 9.89 µM (inactive) | 29.8 µM (inactive) | > 100 µM (inactive) | 17.5 µM (inactive) | > 100 µM (inactive) | > 57.7 µM (inactive) | 13.6 µM (inactive) | > 100 µM (inactive) | 6.56 µM (inactive) | 7.93 µM (inactive) | 14.4 µM (inactive) | > 100 µM (inactive) | 13.7 µM (inactive) |
| O=c1[nH]nc(-c2ccccc2)n1/N=C/c1ccc([N+](=O)[O-])cc1 | > 100 µM (inactive) | > 100 µM (inactive) | 17 µM (inactive) | > 45.4 µM (inactive) | > 33.2 µM (inactive) | > 62.1 µM (inactive) | 7.78 µM (inactive) | 2.94 µM (inactive) | > 53.2 µM (inactive) | > 100 µM (inactive) | 14.6 µM (inactive) | > 100 µM (inactive) | > 100 µM (inactive) | > 100 µM (inactive) | > 100 µM (inactive) | 11 µM (inactive) | 17.1 µM (inactive) | 20 µM (inactive) | > 100 µM (inactive) | > 58.7 µM (inactive) |
| COCCOC1=CC(=O)c2c(O)ccc(O)c2C1=O | 0.186 µM (active) | 0.203 µM (active) | 4.04 µM (inactive) | 2.17 µM (inactive) | 1.75 µM (inactive) | 1.63 µM (inactive) | 2.3 µM (inactive) | 8.41 µM (inactive) | 1.12 µM (active) | 2.69 µM (inactive) | 1.79 µM (inactive) | 0.52 µM (active) | 2.34 µM (inactive) | 1.77 µM (inactive) | 5.01 µM (inactive) | 0.724 µM (active) | 1.73 µM (inactive) | 1.91 µM (inactive) | 4.28 µM (inactive) | 1.72 µM (inactive) |
| COc1ccc(-c2c(CN3CCOCC3)sc3nc4ccccc4n23)cc1 | 2.06 µM (inactive) | > 72.1 µM (inactive) | 21.6 µM (inactive) | 19 µM (inactive) | 23 µM (inactive) | 33.4 µM (inactive) | 11.5 µM (inactive) | 21.6 µM (inactive) | 27.4 µM (inactive) | 3.31 µM (inactive) | 23.7 µM (inactive) | 9.42 µM (inactive) | 9.33 µM (inactive) | > 49.4 µM (inactive) | 3.39 µM (inactive) | 31 µM (inactive) | 16.8 µM (inactive) | 58.6 µM (inactive) | 5.51 µM (inactive) | 8.09 µM (inactive) |
| CC(C)NC(=O)OCc1c(COC(=O)NC(C)C)c(-c2cc[n+](COC(=O)C(C)C)cc2)n2c1CCC2 | > 100 µM (inactive) | > 100 µM (inactive) | > 100 µM (inactive) | > 100 µM (inactive) | > 100 µM (inactive) | 62.1 µM (inactive) | > 100 µM (inactive) | 98.4 µM (inactive) | > 90.4 µM (inactive) | > 100 µM (inactive) | 13.9 µM (inactive) | 27.8 µM (inactive) | > 59.6 µM (inactive) | > 100 µM (inactive) | > 25.2 µM (inactive) | > 68.4 µM (inactive) | 17.7 µM (inactive) | 41.5 µM (inactive) | > 100 µM (inactive) | 30.1 µM (inactive) |
| N#Cc1ccc(CSC2=C(c3ccc(Cl)cc3)S/C(=C3\SC(SCc4ccc(C#N)cc4)=C(c4ccc(Cl)cc4)S3)S2)cc1 | > 100 µM (inactive) | > 100 µM (inactive) | > 100 µM (inactive) | > 100 µM (inactive) | > 100 µM (inactive) | > 100 µM (inactive) | > 100 µM (inactive) | > 100 µM (inactive) | > 100 µM (inactive) | > 100 µM (inactive) | > 100 µM (inactive) | > 100 µM (inactive) | > 100 µM (inactive) | > 100 µM (inactive) | > 100 µM (inactive) | > 100 µM (inactive) | > 100 µM (inactive) | > 100 µM (inactive) | > 100 µM (inactive) | > 100 µM (inactive) |
| CC(=O)O[C@H]1CC[C@@]2(C)C(=CC[C@@H]3[C@@H]2CC[C@]2(C)C(=N/O)/C(=C\c4ccccc4)C[C@@H]32)C1 | 4.71 µM (inactive) | 6.52 µM (inactive) | 22.5 µM (inactive) | 11.9 µM (inactive) | 20.5 µM (inactive) | 14.8 µM (inactive) | > 55 µM (inactive) | 28.9 µM (inactive) | 16.3 µM (inactive) | 31.2 µM (inactive) | 13.4 µM (inactive) | 14.5 µM (inactive) | 5.96 µM (inactive) | 16.5 µM (inactive) | 3.27 µM (inactive) | 16.7 µM (inactive) | 15.9 µM (inactive) | 24.2 µM (inactive) | 33.7 µM (inactive) | 44.2 µM (inactive) |
| O=C(O)CNCc1c2ccccc2nc2ccccc12 | 32.4 µM (inactive) | 34.1 µM (inactive) | 20.4 µM (inactive) | 58.6 µM (inactive) | 43 µM (inactive) | 44.4 µM (inactive) | 74 µM (inactive) | > 76.4 µM (inactive) | 35.6 µM (inactive) | 8.85 µM (inactive) | 66.1 µM (inactive) | 7.64 µM (inactive) | 27.2 µM (inactive) | 33.4 µM (inactive) | 7.33 µM (inactive) | 43.9 µM (inactive) | 29.9 µM (inactive) | 61.9 µM (inactive) | 8.43 µM (inactive) | 45.9 µM (inactive) |
| C/C(=C\[C@H]1C[C@@H]([C@@H]2CC[C@]34C[C@]23C=C[C@@H]2[C@@]3(C)CC=C5C[C@@H](c6ccccc6)OC[C@]5(C)[C@@H]3C[C@@H](O)[C@]24C)C(=O)O1)CO [DICHAPETALIN A] | 1.71 µM (inactive) | 1.96 µM (inactive) | 10.9 µM (inactive) | 6 µM (inactive) | 5.35 µM (inactive) | 1.91 µM (inactive) | 11.8 µM (inactive) | > 36.8 µM (inactive) | 1.19 µM (inactive) | 0.553 µM (active) | 0.437 µM (active) | 1.2 µM (inactive) | 2.64 µM (inactive) | 3.78 µM (inactive) | < 0.01 µM (active) | 10.2 µM (inactive) | 5.08 µM (inactive) | 2.84 µM (inactive) | 0.624 µM (active) | 2.92 µM (inactive) |
| Cn1c2ccccc2c2[nH]c3ccccc3c(=O)c21 | > 100 µM (inactive) | > 100 µM (inactive) | > 100 µM (inactive) | > 100 µM (inactive) | > 100 µM (inactive) | > 100 µM (inactive) | 93.3 µM (inactive) | > 100 µM (inactive) | > 100 µM (inactive) | > 100 µM (inactive) | > 100 µM (inactive) | > 100 µM (inactive) | > 100 µM (inactive) | > 100 µM (inactive) | > 100 µM (inactive) | > 100 µM (inactive) | > 100 µM (inactive) | > 100 µM (inactive) | > 100 µM (inactive) | > 100 µM (inactive) |
